Earlier results in publication PMC9248236 (Nature chemical biology, 2022).

System: IR
Conditions: competition binding assays, substitution at B24 of insulin

In the case of “LeuB24: human insulin analog with PheB24 substituted by leucine (literature)”, the “affinity for IR lower than native PheB24 human insulin” value is given as 2–3 fold.

For “IleB24: human insulin analog with PheB24 substituted by isoleucine (literature)”, the “affinity for IR lower than native PheB24 human insulin” value is listed as 2–3 fold.
